Drawing on patent publication US20140107109A1, “AMINO-DIHYDROTHIAZINE AND AMINO-DIOXIDO DIHYDROTHIAZINE COMPOUNDS AS BETA-SECRETASE ANTAGONISTS AND METHODS OF USE” (Amgen Inc., priority 2012, published 2014), this text covers IC50 for 20 compounds.

pIC50: −log10 of the molar value. Where two headings read alike, the source gives them in different places.

For one assay, the target named is T1, Cathepsin D (Cat D) (Homo sapiens, UniProt P07339).
T1 construct: Recombinant Cat D was expressed in CHO cells; made in house; host or cells: CHO cells
Briefly: In vitro enzymatic Cathepsin D (Cat D) FRET assay. It is filed as biochemical. As to conditions: read-out: CatD IC50. The procedure, abridged: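 Recombinant Cat D expressed in CHO cells, used at 9 nM and pre-incubated one hour with serially diluted inhibitor in DMSO. Peptide substrate carries a fluorophore and quencher flanking the cleavage site; reaction stopped with Tris buffer raising pH to neutrality, then fluorescence read.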

Assay [1] relates to Aβ40 in conditioned medium of cells stably expressing Amyloid Precursor Protein (APP). Briefly: In vitro BACE cell-based assay (HEK cell assay), Aβ40 sandwich ELISA. Particulars: Homo sapiens, HEK293. An outline of the steps: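 APP-stably expressing cells (40K/well, grown 24 h in DMEM/10% FBS) were treated 24 h with compounds in 10-point dose response starting at 100 μM or 10 μM, 0.1% DMSO final. Secreted Aβ40 was measured by sandwich ELISA (pAb40 capture, biotinylated 6E10 detection, europium time-resolved fluorescence); IC50 from percent inhibition.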

The target of assay [2] is Beta Secretase enzyme (BACE1) (Homo sapiens, UniProt P56817). In words: In vitro enzymatic BACE FRET assay. It is filed as biochemical. As to conditions: read-out: BACE1 FRET assay IC50. An outline of the steps:
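BACE1 cleavage of a 50 nM fluorophore/quencher peptide FRET substrate ran for one hour in 0.05 M acetate pH 4.2, 10% DMSO, 100 uM genapol. Tris buffer raised pH to neutrality to stop the reaction before fluorescence was read (excitation 488 nm, […]).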

Chain of Beta Secretase enzyme (BACE1) (P56817 46-501): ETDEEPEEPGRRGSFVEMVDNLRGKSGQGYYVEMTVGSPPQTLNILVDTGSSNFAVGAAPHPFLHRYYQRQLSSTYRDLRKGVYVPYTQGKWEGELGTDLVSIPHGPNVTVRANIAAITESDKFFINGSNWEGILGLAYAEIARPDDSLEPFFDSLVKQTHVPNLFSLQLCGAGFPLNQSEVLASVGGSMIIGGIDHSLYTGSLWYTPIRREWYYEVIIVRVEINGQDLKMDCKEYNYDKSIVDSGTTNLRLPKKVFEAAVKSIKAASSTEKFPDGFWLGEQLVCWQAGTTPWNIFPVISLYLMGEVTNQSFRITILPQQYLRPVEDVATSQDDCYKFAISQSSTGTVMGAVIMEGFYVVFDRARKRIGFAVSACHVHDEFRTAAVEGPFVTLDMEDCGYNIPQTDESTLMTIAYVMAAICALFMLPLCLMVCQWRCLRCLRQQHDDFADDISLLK
T1 sequence (P07339 65-412, species assumed): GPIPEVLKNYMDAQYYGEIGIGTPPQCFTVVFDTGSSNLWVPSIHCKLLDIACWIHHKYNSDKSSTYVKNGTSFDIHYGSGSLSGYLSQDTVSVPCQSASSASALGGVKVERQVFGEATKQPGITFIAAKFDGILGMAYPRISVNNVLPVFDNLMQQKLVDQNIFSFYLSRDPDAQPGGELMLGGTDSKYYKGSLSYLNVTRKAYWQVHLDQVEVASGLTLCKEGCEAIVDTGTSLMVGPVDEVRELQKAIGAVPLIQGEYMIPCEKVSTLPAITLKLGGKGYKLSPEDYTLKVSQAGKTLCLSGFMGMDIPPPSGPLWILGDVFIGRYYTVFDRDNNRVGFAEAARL

As to `CC1(C)C(N)=N[C@](CF)(c2cc(Nc3ncc(F)c4cc(O)cnc34)ccc2F)CS1(=O)=O` [Example 433, 8-((3-((3S)-5-amino-3-(fluoromethyl)-6,6-dimethyl-1,1-dioxido-3,6-dihydro-2H-1,4-thiazin-3-yl)-4-fluorophenyl)amino)-5-fluoro-1,7-naphthyridin-3-ol], the pIC50 on Cathepsin D (Cat D) was 3.95; in assay [1] (average IC50, cell assay), 7.50; in assay [2] (average IC50, enzyme assay), 9.22.
Taken in the same sequence, the figures for `CC1(C)C(N)=N[C@](CF)(c2cc(Nc3ncc(F)c4cc(OCC5CCC5)cnc34)ccc2F)CS1(=O)=O` [Example 434, N-(3-((3S)-5-amino-3-(fluoromethyl)-6,6-dimethyl-1,1-dioxido-3,6-dihydro-2H-1,4-thiazin-3-yl)-4-fluorophenyl)-3-(cyclobutylmethoxy)-5-fluoro-1,7-naphthyridin-8-amine] were 4.49, 6.47 and 8.82.
Taken in the same sequence, the figures for `CCOc1cnc2c(Nc3ccc(F)c([C@]4(CF)CS(=O)(=O)C(C)(C)C(N)=N4)c3)ncc(F)c2c1` [Example 435, N-(3-((3S)-5-amino-3-(fluoromethyl)-6,6-dimethyl-1,1-dioxido-3,6-dihydro-2H-1,4-thiazin-3-yl)-4-fluorophenyl)-3-ethoxy-5-fluoro-1,7-naphthyridin-8-amine] were less than 3.40, 7.31 and 8.80.
Taken in the same sequence, the figures for `CC(C)COc1cnc2c(Nc3ccc(F)c([C@]4(CF)CS(=O)(=O)C(C)(C)C(N)=N4)c3)ncc(F)c2c1` [Example 436, N-(3-((3S)-5-amino-3-(fluoromethyl)-6,6-dimethyl-1,1-dioxido-3,6-dihydro-2H-1,4-thiazin-3-yl)-4-fluorophenyl)-5-fluoro-3-(2-methylpropoxy)-1,7-naphthyridin-8-amine] were 4.21, 6.20 and 8.37.
On to `CC1(C)C(N)=N[C@](CF)(c2cc(Nc3ncc(F)c4cc(OCC(F)F)cnc34)ccc2F)CS1(=O)=O` [Example 437, N-(3-((3S)-5-amino-3-(fluoromethyl)-6,6-dimethyl-1,1-dioxido-3,6-dihydro-2H-1,4-thiazin-3-yl)-4-fluorophenyl)-3-(2,2-difluoroethoxy)-5-fluoro-1,7-naphthyridin-8-amine], for which the pIC50 on Cathepsin D (Cat D) was less than 5.78; in assay [1] (average IC50, cell assay), 7.19; in assay [2] (average IC50, enzyme assay), 8.65.
The like results for `CCOc1cnc2c(Nc3ccc(F)c([C@]4(CF)CS(=O)(=O)C5(CCC5)C(N)=N4)c3)ncc(F)c2c1` [Example 438, N-(3-((7S)-9-amino-7-(fluoromethyl)-5,5-dioxido-5-thia-8-azaspiro[3.5]non-8-en-7-yl)-4-fluorophenyl)-3-ethoxy-5-fluoro-1,7-naphthyridin-8-amine] were, in that order, less than 5.78, 6.70 and 8.42.
The like results for `CC1(C)C(N)=N[C@](C)(c2cc(Sc3ncccc3F)ccc2F)CS1(=O)=O` [Example 439, (5R)-5-(2-fluoro-5-((3-fluoro-2-pyridinyl)sulfanyl)phenyl)-2,2,5-trimethyl-5,6-dihydro-2H-1,4-thiazin-3-amine 1,1-dioxide] were, in that order, 3.67, 6.00 and 6.43.
Taken in the same sequence, the figures for `CC1(C)C(N)=N[C@](C)(c2cc(Sc3cc(C#N)ccn3)ccc2F)CS1(=O)=O` [Example 440, 2-((3-((3R)-5-amino-3,6,6-trimethyl-1,1-dioxido-3,6-dihydro-2H-1,4-thiazin-3-yl)-4-fluorophenyl)sulfanyl)-4-pyridinecarbonitrile] were 3.66, 6.17 and 6.25.
Regarding `CC1(C)C(N)=N[C@](C)(c2cc(Nc3nccc4nc(OCCF)cnc34)ccc2F)CS1(=O)=O` [Example 441, N-(3-((3R)-5-amino-3,6,6-trimethyl-1,1-dioxido-3,6-dihydro-2H-1,4-thiazin-3-yl)-4-fluorophenyl)-2-(2-fluoroethoxy)pyrido[3,4-b]pyrazin-5-amine], the pIC50 is 3.39 on Cathepsin D (Cat D); 7.86 in assay [1] (average IC50, cell assay); 8.27 in assay [2] (average IC50, enzyme assay).
On to `CC1(C)C(N)=N[C@](C)(c2cc(Nc3nccc4nc(OCC(F)(F)F)cnc34)ccc2F)CS1(=O)=O` [Example 442, N-(3-((3R)-5-amino-3,6,6-trimethyl-1,1-dioxido-3,6-dihydro-2H-1,4-thiazin-3-yl)-4-fluorophenyl)-2-(2,2,2-trifluoroethoxy)pyrido[3,4-b]pyrazin-5-amine], for which the negative logarithm of the IC50 (pIC50) on Cathepsin D (Cat D) was 3.41; in assay [1] (average IC50, cell assay), 7.50; in assay [2] (average IC50, enzyme assay), 8.49.
The like results for `CC1(C)C(N)=N[C@](C)(c2cc(Nc3nccc4nc(OCC#N)cnc34)ccc2F)CS1(=O)=O` [Example 443, ((5-((3-((3R)-5-amino-3,6,6-trimethyl-1,1-dioxido-3,6-dihydro-2H-1,4-thiazin-3-yl)-4-fluorophenyl)amino)pyrido[3,4-b]pyrazin-2-yl)oxy)acetonitrile] were, in that order, 3.46, 8.40 and 8.54.
For `CC1(C)C(N)=N[C@](C)(c2cc(Nc3nccc4nc(OCC(F)F)cnc34)ccc2F)CS1(=O)=O` [Example 444, N-(3-((3R)-5-amino-3,6,6-trimethyl-1,1-dioxido-3,6-dihydro-2H-1,4-thiazin-3-yl)-4-fluorophenyl)-2-(2,2-difluoroethoxy)pyrido[3,4-b]pyrazin-5-amine], the pIC50 at Cathepsin D (Cat D) is 3.62; in assay [1] (average IC50, cell assay) it was 8.08; in assay [2] (average IC50, enzyme assay) it was 8.34.
Taken in the same sequence, the figures for `CC#CCOc1cnc2c(Nc3ccc(F)c([C@]4(C)CS(=O)(=O)C(C)(C)C(N)=N4)c3)nccc2n1` [Example 445, N-(3-((3R)-5-amino-3,6,6-trimethyl-1,1-dioxido-3,6-dihydro-2H-1,4-thiazin-3-yl)-4-fluorophenyl)-2-(2-butyn-1-yloxy)pyrido[3,4-b]pyrazin-5-amine] were 3.75, 9.70 and 9.49.
For `CC1(C)C(N)=N[C@](C)(c2cc(Nc3cc(Cl)cc4cc(Cl)cnc34)ccc2F)CS1(=O)=O` [Example 446, N-(3-((3R)-5-amino-3,6,6-trimethyl-1,1-dioxido-3,6-dihydro-2H-1,4-thiazin-3-yl)-4-fluorophenyl)-3,6-dichloro-8-quinolinamine], the pIC50 was 4.86 at Cathepsin D (Cat D); 6.58 in assay [1] (average IC50, cell assay); 8.66 in assay [2] (average IC50, enzyme assay).
Taken in the same sequence, the figures for `COc1cnc2c(Nc3ccc(F)c([C@]4(CF)CS(=O)(=O)C(C)(C)C(N)=N4)c3)nccc2n1` [Example 447, N-(3-((3S)-5-amino-3-(fluoromethyl)-6,6-dimethyl-1,1-dioxido-3,6-dihydro-2H-1,4-thiazin-3-yl)-4-fluorophenyl)-2-methoxypyrido[3,4-b]pyrazin-5-amine] were 2.95, 7.85 and 9.06.
With `CC1(C)C(N)=N[C@](CF)(c2cc(Nc3nccc4cc(Cl)cnc34)ccc2F)CS1(=O)=O` [Example 448, N-(3-((3S)-5-amino-3-(fluoromethyl)-6,6-dimethyl-1,1-dioxido-3,6-dihydro-2H-1,4-thiazin-3-yl)-4-fluorophenyl)-3-chloro-1,7-naphthyridin-8-amine], the pIC50 on Cathepsin D (Cat D) was 4.23; in assay [1] (average IC50, cell assay) it was 7.55; in assay [2] (average IC50, enzyme assay) it was 9.43.
The like results for `CC1(C)C(N)=N[C@](CF)(c2cc(Nc3nncc4cc(Br)ccc34)ccc2F)CS1(=O)=O` [Example 449, N-(3-((3S)-5-amino-3-(fluoromethyl)-6,6-dimethyl-1,1-dioxido-3,6-dihydro-2H-1,4-thiazin-3-yl)-4-fluorophenyl)-6-bromo-1-phthalazinamine] were, in that order, 3.43, 6.80 and 7.52.
The like results for `CC1(C)C(N)=N[C@](C)(c2cc(Nc3nncc4cc(Br)cnc34)ccc2F)CS1(=O)=O` [Example 451, N-(3-((3R)-5-amino-3,6,6-trimethyl-1,1-dioxido-3,6-dihydro-2H-1,4-thiazin-3-yl)-4-fluorophenyl)-3-bromopyrido[2,3-d]pyridazin-8-amine] were, in that order, 3.98, 9.22 and 9.17.
Taken in the same sequence, the figures for `CC1(C)C(N)=N[C@](C)(c2cc(NC(=O)c3ccc(Cl)cn3)c[nH]c2=O)CS1(=O)=O` [Example 452, N-(5-((3R)-5-amino-3,6,6-trimethyl-1,1-dioxido-3,6-dihydro-2H-1,4-thiazin-3-yl)-6-oxo-1,6-dihydro-3-pyridinyl)-5-chloro-2-pyridinecarboxamide] were 2.73, 7.80 and 8.15.
For the compound `Cc1cc(OC(F)F)cnc1C(=O)Nc1cnc(F)c([C@]2(C)CS(=O)(=O)C3(CC3)C(N)=N2)c1` [Example 454, N-(5-((6R)-8-amino-6-methyl-4,4-dioxido-4-thia-7-azaspiro[2.5]oct-7-en-6-yl)-6-fluoro-3-pyridinyl)-5-(difluoromethoxy)-3-methyl-2-pyridinecarboxamide], the pIC50 was 3.97 at Cathepsin D (Cat D); 8.41 in assay [1] (average IC50, HEK cells); 8.51 in assay [2] (average IC50).
